Measurements: ChEMBL document CHEMBL1156829 (Proc Natl Acad Sci U S A, 2008)
pEC50: −log10 of the molar value.

How the values were obtained:
Plasmodium falciparum [1] = assay: NOVARTIS: Inhibition of Plasmodium falciparum 3D7 (drug-susceptible) proliferation in erythrocyte-based infection assay; format: functional, organism-based; settings: Plasmodium falciparum, 3D7
[2] = NOVARTIS: Cytotoxicity against human hepatocellular carcinoma cell line (Huh7); format: toxicity, cell-based, Huh-7; settings: Huh7 cells (hepatocellular carcinoma cell line)
Plasmodium falciparum [3] = assay: NOVARTIS: Inhibition of Plasmodium falciparum W2 (drug-resistant) proliferation in erythrocyte-based infection assay; format: functional, organism-based; settings: Plasmodium falciparum, W2; read-out: EC50

Compound | pEC50 (Plasmodium falciparum [1]) | CC50 [2] | pEC50 (Plasmodium falciparum [3])
COC(=O)c1ccc(N(C(=O)Cc2c[nH]c3ccccc23)C(C(=O)NC2CCCCC2)c2ccccc2F)cc1 (centres undefined) | 6.70 | > 100000 nM | 6.71
CC1OC(=O)C(C(C)C)NC(=O)C(C(C)C)OC(=O)C(C(C)C)NC(=O)C(C)OC(=O)C(C(C)C)NC(=O)C(C(C)C)OC(=O)C(C(C)C)NC(=O)C(C)OC(=O)C(C(C)C)NC(=O)C(C(C)C)OC(=O)C(C(C)C)NC1=O (centres undefined) | 7.04 | > 10000 nM | 7.93
N=c1c2c(n(Cc3ccc(Cl)cc3)c3c1CCC3)CCCC2 | 6.65 | > 10000 nM | 6.27
NC(=O)Oc1ccc(Cc2ccccc2)cc1 | 6.07 | > 10000 nM | 6.13
c1cncc(-c2cc(NCCCN3CCOCC3)nc(-c3ccncc3)n2)c1 | 5.97 | > 10000 nM | 5.92
CCCCOc1ccc(N(C(C)=O)C2=C(N3CCCCC3)C(=O)c3ccccc3C2=O)cc1 | 8.25 | 54400 nM | 8.38
CCCCc1c(C)nc2ccc(Br)cc2c1O | 5.71 | > 100000 nM | 6.27
O=C(C1CC1)N1CCOc2c(cc(-c3csc4ccccc34)cc2OCCc2ccccn2)C1 | 6.15 | 68200 nM | 6.23
CCCOC(=O)CSc1nc(N)c(C#N)c(-c2ccco2)c1C#N | 5.72 | > 100000 nM | 5.91
CCC(C)Nc1nc(NC(C)CC)nc(N2CCCCCC2)n1 (centres undefined) | 6.32 | 14700 nM | 6.42
CCOc1ccc(NC2=C(N3CCOCC3)C(=O)c3ccccc3C2=O)cc1 | 5.44 | > 100000 nM | 5.18
COC(=O)C1=C(C)NC2=C(C(=O)CC(c3ccccc3Cl)C2)C1c1ccc(OC)c(OC)c1 (centres undefined) | 5.89 | > 100000 nM | 6.32
CCN(CC)c1ccc2c(c1)OC(N)=C(C#N)C2c1ccsc1 (centres undefined) | < 5.02 | > 100000 nM | < 4.90
O=C(NCc1ccccc1)c1cnc(NCCN2CCCCC2)nc1NCCc1ccccc1 | 6.02 | > 10000 nM | < 5.90
O=C(CCCn1c(SCc2ccccc2F)nc2ccccc2c1=O)N1CCCC1 | 5.98 | > 10000 nM | < 5.84
Cc1cccc(CSc2nnc(C(Cc3ccccc3)NC(=O)C3CCCCC3)n2-c2ccc(Cl)cc2Cl)c1 (centres undefined) | 5.91 | > 10000 nM | 5.84
O=C(CCl)NCCOc1ccc(Cl)cc1Cl | 6.27 | 13000 nM | 6.29

Compound | pEC50 (Plasmodium falciparum [1]) | CC50 [2] | pEC50 (Plasmodium falciparum [3])
Cc1noc(C)c1S(=O)(=O)N(Cc1ccccc1)CC(O)CN1CCC(NC(=O)Cc2cccs2)C1 (centres undefined) | 6.76 | > 10000 nM | 6.85
CC(=O)O[C@]1(C(C)=O)CCC2C3C=CC4=CC(=O)CC[C@]4(C)C3CC[C@@]21C (some centres undefined) | < 5.92 | > 10000 nM | 5.99
COc1ccccc1NC(=O)CCCC(=O)OC(C)C(=O)c1ccccc1 (centres undefined) | < 5.90 | > 10000 nM | < 6.18
Cc1cc(NC(c2cccc(Br)c2)c2ccc3cccnc3c2O)no1 (centres undefined) | 6.57 | > 22800 nM | 6.40
COc1ccc(C2CC(=O)C3=C(C2)NC(C)=C(C(=O)OC2CCCC2)C3c2cccc(C)c2)cc1OC (centres undefined) | 6.52 | 14900 nM | 6.68
CC(C)c1cccc(C(C)C)c1NC(=O)N(Cc1ccccc1)C(C)c1nc2ccccc2c(=O)n1-c1ccccc1 (centres undefined) | 5.88 | > 10000 nM | 6.13
c1ccc(Cn2c(N=NNc3nc4ccccc4n3Cc3ccccc3)nc3ccccc32)cc1 | 7.07 | 19200 nM | 7.09
OC(CN1CCN(C2c3ccccc3-c3ccccc32)CC1)Cn1c2ccc(Br)cc2c2cc(Br)ccc21 (centres undefined) | < 4.95 | > 100000 nM | 5.29
Brc1cc(Br)c2c(-c3ccccc3)n(-c3ccccc3)nc(-c3ccccc3)c1-2 | 6.12 | > 10000 nM | < 5.77
COC(=O)[C@@H]1C[C@@H](NC(=O)c2ccc(OC)cc2OC)CN1C/C(C)=C/c1ccccc1 | 6.36 | > 10000 nM | 6.09
Cc1cc(NC(=O)C2c3ccccc3C(=O)N(CC(C)C)C2c2cccs2)no1 (centres undefined) | 7.07 | > 100000 nM | 7.34
CCCCNCCN1CCN(c2ccc3ccccc3c2)C[C@@H]1c1ccccc1 | 7.46 | 8160 nM | 8.61
COc1ccc2nc(C)cc(Nc3ccc(N4CCN(C)CC4)cc3)c2c1 | 7.08 | 7330 nM | 6.82
FC(F)(F)c1cccc(NC(=S)N2CCCC2c2ccccc2Cl)c1 (centres undefined) | 6.73 | > 100000 nM | 6.73
CC(=O)N1CCN(c2ccc(NC(=S)NC(=O)c3ccc(C)cc3)cc2)CC1 | < 4.90 | > 95700 nM | 5.42
CCN(CC)CCCN(Cc1cc2ccc(C)cc2[nH]c1=O)C(=S)Nc1cccc(Cl)c1 | 6.15 | 22100 nM | 6.75
